# Biological target: T1, WT hSLACK (Homo sapiens, UniProt Q5JUK3)
# T1 construct: host or cells: CHO-K1
# T1 sequence (Q5JUK3 1-1235 isoform Q5JUK3-3): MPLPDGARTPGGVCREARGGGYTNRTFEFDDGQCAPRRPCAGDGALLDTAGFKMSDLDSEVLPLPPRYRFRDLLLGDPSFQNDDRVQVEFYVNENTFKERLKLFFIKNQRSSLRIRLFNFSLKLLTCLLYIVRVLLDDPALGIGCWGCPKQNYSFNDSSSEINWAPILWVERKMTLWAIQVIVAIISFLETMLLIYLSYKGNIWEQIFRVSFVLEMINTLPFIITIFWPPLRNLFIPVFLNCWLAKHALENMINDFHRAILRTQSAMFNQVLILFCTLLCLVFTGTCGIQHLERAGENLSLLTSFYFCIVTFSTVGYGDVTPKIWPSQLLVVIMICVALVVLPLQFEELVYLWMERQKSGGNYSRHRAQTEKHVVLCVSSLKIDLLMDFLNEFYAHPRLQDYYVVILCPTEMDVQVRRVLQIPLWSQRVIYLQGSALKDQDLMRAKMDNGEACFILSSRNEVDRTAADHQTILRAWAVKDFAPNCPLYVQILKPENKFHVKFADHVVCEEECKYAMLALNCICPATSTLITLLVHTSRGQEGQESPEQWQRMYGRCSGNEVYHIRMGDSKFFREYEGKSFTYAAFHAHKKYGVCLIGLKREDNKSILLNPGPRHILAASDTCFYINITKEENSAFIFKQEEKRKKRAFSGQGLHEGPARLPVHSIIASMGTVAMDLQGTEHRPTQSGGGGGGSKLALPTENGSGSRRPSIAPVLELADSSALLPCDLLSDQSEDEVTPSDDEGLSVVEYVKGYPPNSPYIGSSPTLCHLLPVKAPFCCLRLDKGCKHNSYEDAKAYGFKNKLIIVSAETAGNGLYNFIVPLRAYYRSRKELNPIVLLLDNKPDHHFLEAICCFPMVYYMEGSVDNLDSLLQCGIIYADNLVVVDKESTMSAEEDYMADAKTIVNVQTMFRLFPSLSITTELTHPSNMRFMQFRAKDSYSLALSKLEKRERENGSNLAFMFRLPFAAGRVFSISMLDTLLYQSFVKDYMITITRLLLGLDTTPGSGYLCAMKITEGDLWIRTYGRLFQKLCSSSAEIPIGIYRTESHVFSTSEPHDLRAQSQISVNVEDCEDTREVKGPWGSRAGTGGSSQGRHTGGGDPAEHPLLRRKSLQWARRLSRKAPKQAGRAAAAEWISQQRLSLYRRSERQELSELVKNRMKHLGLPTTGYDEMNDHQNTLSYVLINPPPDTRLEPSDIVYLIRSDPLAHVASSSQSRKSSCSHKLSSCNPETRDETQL
# Test: Whole-cell automated patch-clamp (APC) in CHO cells stably expressing WT hSLACK
# Format: cell-based
# Conditions: maximum inhibition at 30 µM test compound standardized to VU0606170 (set at 100%); WT hSLACK
# Protocol: All new analogs were tested in our APC assay using CHO cells stably expressing WT SLACK using a concentration-response format with concentrations ranging from 0.125 to 30 μM in half-log steps and a minimum of three cells (replicates) per concentration series. […] Still, there were some notable results. For example, substitution at the 4-position was largely unfavorable regardless of the nature of the substituent (21, 24, 27, 30, and 33) apart from the 4-fluoro analog 18. […] As the trifluoromethyl group is similar in electronegativity to chlorine, but larger than both methyl and chlorine, perhaps the steric bulk of the trifluoromethyl is to blame for the poor potency of these analogs. With the exception of the fluoro (16–18) and cyano (28–30) analogs, substitution at the 3-position was favorable for SLACK activity, with 3-methoxy analog 32 standing out in this set.
# Stably transfected monoclonal HEK293 cell lines expressing Slick, Maxi-K α1/β3, Maxi-K α1/β4, CaV3.2, GIRK 1/2, KV2.1, KV7.2, NaV1.7, and TASK-1 were generated as previously described. Stably transfected monoclonal HEK293 cell lines expressing hERG were generated as previously described. CHO-K1 cells expressing human Slack and disease-associated human Slack mutations, G288S and A934T, were generated by transfecting a PiggyBac TRE mammalian expression vector (VectorBuilder, Chicago, IL, USA) containing KCNT1. FuGENE 6 (Promega, Madison, WI, USA) transfection reagent and protocol, together with Opti-MEM (Thermo Fisher Scientific, Walkham, MA, USA), were utilized.
# Automated patch-clamp recording was performed with a SyncroPatch 768 PE system (Nanion, Munich, Germany) as previously described. Whole-cell recordings were performed at room temperature. Cells were harvested by first washing with PBS without Mg^2+ or Ca^2+ (Gibco, Billings, MT, USA) to remove cell culture media, followed by dissociation with TryPLE (Gibco, Billings, MT, USA). Cells were then resuspended and diluted to 100,000 cells/mL in external solution. External solution contained 105 mM NaCl, 4 mM KCl, 1 mM MgCl2, 5 mM CaCl2, 10 mM HEPES, and 40 mM N-Methyl-D-glucamine chloride, titrated to pH of 7.4 and osmolarity of 300 mOsm/kg; internal solution contained 70 mM NaCl, 70 mM KF, 10 mM KCl, 5 mM EGTA, and 5 mM HEPES, titrated to a pH of 7.2 and osmolarity of 295 mOsm/kg.
# The APC protocol was set as follows: Cells were held at a […] of −80 mV for 100 ms, then a ramp protocol was performed from −100 mV to 80 mV at 0.4 mV/ms, followed by holding the cell at −80 mV for another 100 ms, then steps were performed at −20 mV, 0 mV, +20 mV, +40 mV, and +60 mV for 100 ms of each step. Whole-cell currents were measured at 0 mV and normalized to current after external buffer addition. […] To obtain the concentration-response relationship graphs and IC50 values, we take the median value of the last 7 current amplitude values obtained for each set of data points collected for a given concentration at a particular step.
row,Compound,SLACK Imax
1,COc1cccc(Cn2c(=O)c3c(nc(N(C)Cc4ccccc4)n3C)n(C)c2=O)c1 [Analog 32],100%
2,CN(Cc1cccc(F)c1)c1nc2c(c(=O)n(Cc3ccccc3)c(=O)n2C)n1C [Analog 48],100%
3,CCCCN(Cc1ccccc1)c1nc2c(c(=O)n(Cc3ccccc3)c(=O)n2C)n1C [Analog 70],100%
4,Cn1c(N(Cc2ccccc2)CC2CC2)nc2c1c(=O)n(Cc1ccccc1)c(=O)n2C [Analog 71],100%

# Same assay, conditions: whole-cell APC, CHO cells stably expressing WT hSLACK, averages n ≥ 3; read-out: SLACK IC50
row,Compound,IC50
1,COc1cccc(Cn2c(=O)c3c(nc(N(C)Cc4ccccc4)n3C)n(C)c2=O)c1 [Analog 32],0.8 µM
2,CN(Cc1cccc(F)c1)c1nc2c(c(=O)n(Cc3ccccc3)c(=O)n2C)n1C [Analog 48],0.89 µM
3,CCCCN(Cc1ccccc1)c1nc2c(c(=O)n(Cc3ccccc3)c(=O)n2C)n1C [Analog 70],0.94 µM
4,Cn1c(N(Cc2ccccc2)CC2CC2)nc2c1c(=O)n(Cc1ccccc1)c(=O)n2C [Analog 71],0.98 µM
5,CCCCN(Cc1cccc(F)c1)c1nc2c(c(=O)n(Cc3cccc(OC)c3)c(=O)n2C)n1C [Analog 78],1.2 µM
6,COc1cccc(Cn2c(=O)c3c(nc(N(Cc4cccc(F)c4)CC4CC4)n3C)n(C)c2=O)c1 [Analog 79],1 µM
7,CCCCN(Cc1ccc(F)cc1)c1nc2c(c(=O)n(Cc3cccc(OC)c3)c(=O)n2C)n1C [Analog 80],0.7 µM
8,COc1cccc(Cn2c(=O)c3c(nc(N(Cc4ccc(F)cc4)CC4CC4)n3C)n(C)c2=O)c1 [Analog 81],1.5 µM

# From PMC11173529, “Structure–Activity Relationship Studies in a Series of Xanthine Inhibitors of SLACK Potassium Channels” (Molecules, 2024)
